From patent publication US6291470A, “Indole derivatives process for producing the same and medicinal uses of the same” (Toray Industries, Inc., priority 1992, dated 2001)

Assays:
[1] = test system: delayed type hypersensitivity; assay: Mouse Delayed Type Hypersensitivity Reaction Suppression Test-1 (SRBC); type: in vivo; details: SRBC sensitization; subcutaneous, everyday from 3 days before sensitization, totally 8 days; BALB/c
Experimental: BALB/c mice (male, 7 weeks old) were used. The mice were classified into groups depending on the body weight, each group consisting of 7-8 mice. Each of the mice was sensitized by subcutaneously administering […] of SRBC (8×10^8 in saline) on the heel of the left hing leg. On day 4 from the sensitization, 25 μl of SRBC (8×10^9 in saline) was subcutaneously administered on the right footpad so as to induce delayed type hypersensitivity. The difference in the thicknesses of the right footpad before the induction of reaction and 24 hours after the induction of the reaction was employed as an index of the degree of the reaction.
The test compound was dissolved in 10% DMSO-water and was subcutaneously administered everyday from 3 days before the sensitization to the day of induction of the reaction, totally 8 days. In the control group, 10% DMSO-water alone was administered in the same manner. The volume of administration was 5 ml/kg in both study groups and in the control group.
The % suppression of the delayed type hypersensitivity reaction was calculated according to the following equation: [formula]
wherein A means the difference in the thickness of the right hind leg before and after the reaction in control group, and B means the difference in the thickness of the right hind leg before and after the reaction in the group to which the test compound was administered.

[2] = target: T1, δ-opioid receptor (Mus musculus, UniProt P32300); assay: δ-opioid antagonist activity against DPDPE in mouse vas deferens (MVD); details: for Ratio of IC50 Values: DPDPE IC50 with/without 100 nM test compound; for Ratio of IC50 Values / Kb: 20 min; for Kb: against DPDPE, test compound 100 nM, read-out: Ke
T1 construct: from tissue; host or cells: vas deferens of male ddy mice
T1 sequence (P32300 whole entry): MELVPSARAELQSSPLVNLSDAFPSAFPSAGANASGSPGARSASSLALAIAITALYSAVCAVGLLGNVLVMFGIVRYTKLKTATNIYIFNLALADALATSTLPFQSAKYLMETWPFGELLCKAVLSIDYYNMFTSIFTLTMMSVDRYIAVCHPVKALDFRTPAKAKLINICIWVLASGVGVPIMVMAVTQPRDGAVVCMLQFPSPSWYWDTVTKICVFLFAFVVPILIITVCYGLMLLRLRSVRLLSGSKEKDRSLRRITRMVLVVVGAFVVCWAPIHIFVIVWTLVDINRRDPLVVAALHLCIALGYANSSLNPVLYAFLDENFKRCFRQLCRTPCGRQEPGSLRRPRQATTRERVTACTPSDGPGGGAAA
Experimental: Using mouse vas deferens (MVD), the antagonist activity against DPDPE which is a δ-opioid agonist was checked.
In this experiment, ddy male mice were used. In a Magnus' tube which is filled with Krebes-Henseleit solution (NaCl […]; KCl 4.7 mM; CaCl2 2.5 mM; KH2 PO4 1.1 mM; NaHCO3 25 mM; glucose 11 mM) kept at 37° C., and into which an atmosphere consisting of 5% carbon dioxide and 95% oxygen was flown, vas deferens taken from the animals was suspended. Electric stimulation was applied through ring-shaped platinum electrodes mounted on the upper and lower portions of the tube at a frequency of 0.1 Hz and 5.0 mS duration. The contraction of the tissue was recorded on polygraph using isometric transducer.
Then 100 nM of the test compound was added. Twenty minutes later, DPDPE was begun to be added cumulatively. The ratio of IC50 values in the presence and absence of the test compound, Ke value (the molar concentration of the test compound necessary for translating the dose-effect curve to the curve of twice dose) and pA2 value were determined. The pA2 value was determined by the method of Shild et al (Shild, H. O., Br. J. Pharmac. Chamotehr., 4, 277 (1949)). That is, the logarithm of the test compound (log[test compound]) was plotted along the abscissa and the logarithm of the value obtained by subtracting 1 from the ratio of IC50 values was plotted in the presence and absence of the test compound [log(dose ratio-1)] along the ordinate. The pA2 value was determined from the value on the abscissa when the value on the ordinate of the obtained line is 0.

[3] = test system: delayed type hypersensitivity; assay: Mouse Delayed Type Hypersensitivity Reaction Suppression Test-2 (donor spleen cells, subcutaneous administration); type: in vivo; details: C57BL/6 spleen cells; subcutaneous everyday from day of sensitization, totally 8 days; BALB/c
From the text: (§1) BALB/c mice (male, 7 weeks old) were used, and each group consisted of 4-5 mice. Spleen cells (1×10^7 ) obtained from a donor mouse (C57BL/6) was subcutaneously administered to sensitize the mice. On Day 7 from the sensitization, the spleen cells (5×10^6) of the donor were subcutaneously administered on the right hing leg and spleen cells (5×10^6) obtained from a mouse of the same line as the recipient mice were subcutaneously administered on the left footpad. Twenty four hours later, the thicknesses of the right and left footpads were measured with a dial thickness gage, and the difference in thicknesses of the right and left footpads before the induction of the reaction and 24 hours after the induction of the reaction was employed as the index of the degree of the reaction.
The test compound was dissolved in 10% DMSO-water and was subcutaneously administered everyday from the day of sensitization to the day of induction of the reaction, totally 8 days. In the control group, 10% DMSO-water alone was administered in the same manner. The volume of administration was 10 ml/kg in both study groups and in the control group. Delayed Type Hypersensitivity Reaction=(thickness of right foodpad after induction-thickness of right footpad before induction)-(thickness of […] before induction) [formula]
wherein C means delayed type hypersensitivity reaction of the group to which the test compound was administered and D means the delayed type hypersensitivity reaction of the group to which vehicle was administered.

[4] = test system: Cerebral cortex nerve cells; assay: Brain cell-protecting action, MTT method; type: cell-based, rat; details: study group / control group, 570 nm, 10 μM, 3 days culture
Experimental: The brain cell-protecting action was examined by MTT [3-(4,5-dimethylthiazol-2-yl)-2,5-diphenyltetrazolium bromide] method. MTT yields a dark blue formazan compound by mitochondria in living cells. This compound was dissolved in isopropanol and absorbance at 570 nm was measured, thereby measuring the number of living cells.
Cerebral cortex nerve cells of fetal rats of 17 days old were placed in wells of a 96-well plate at a population density of 1×10^5 cells/cm^2. Then 10 μM of a test compound was added and the cells were cultured in 200 μl of mixed medium of D-MEM/F.12 (1:1) for 3 days (37° C., 5%CO2). In a control group, the medium alone was added Then […] of MTT solution in PBS (6mg/ml) was added and the mixture was allowed to react for 3 hours (37° C., 5% CO2). After removing the culture medium, 100 μl of isopropanol was added and the absorbance was measured.
The ratio of the absorbances of the study group and the control group was employed as an index of brain cell-protecting action.

[5] = test system: brain cells; details: Kokai No. 3-218313; cited from earlier work
[6] = test system: delayed type hypersensitivity; assay: Mouse Delayed Type Hypersensitivity Reaction Suppression Test-3 (administration into cerebral ventricles); type: in vivo
From the text: as §1, with “(1×10^7)” for “(1×10^7 )”, “footpad” for “hing leg”, “strain” for “line”
The test compound was dissolved in water and 5×10^-8 mol/mouse was administered into cerebral ventricles. In the control group, water alone was administered similarly. The dose was 5 μl/mouse in both the study groups and the control group.

[7] = test system: delayed type hypersensitivity; assay: Delayed type hypersensitivity suppression test using mice from which adrenal glands have been removed; type: in vivo, mouse; details: subcutaneous, totally 8 days
From the text: The mechanism of immunosuppression of the compound of the present invention was examined using delayed type hypersensitivity suppression test using mice from which adrenal glands have been removed.
as §1, with “(1×10^7)” for “(1×10^7 )”, “footpad” for “hing leg”, “strain” for “line”
The adrenectomy was performed by cutting the back of each recipient mouse under anesthesia with ether before the sensitization and removing the adrenal gland. Sham operation was performed by cutting the back of each recipient mouse but not removing the adrenal gland.
The test compound was dissolved in 10% DMSO-water and was subcutaneously administered everyday from the day of sensitization to the day of induction of the reaction, totally 8 days. In the control group, 10% DMSO-water alone was administered in the same manner. The volume of administration was 10 ml/kg in both study groups and in the control groups.

[8] = test system: contact dermatitis; assay: Mouse Contact Dermatitis Suppression Test (DNFB); type: in vivo; details: into cerebral ventricle 30 minutes before induction, BALB/c
Experimental: BALB/c mice (male, 13-15 weeks old) were used, and each group consisted of 4 mice. In mixed liquid of acetone: olive oil=4:[…] (DNFB) was dissolved. On Day 0 and Day 1, 0.1% DNFB (50μ) was sensitized to the clipped skin of the abdominal wall, so as to sensitize the mouse. On day 5, 0.15% DNFB (25 μl/ear) was challenged on closal side of each ear love of each mouse, so as to induce the reaction. The compound was administered into cerebral ventricle 30 minutes before the induction.
The contact dermatitis was detected in terms of the increase in the thicknesses of the ears. The thicknesses of the ears were measured before and 24 hours after the challenge by using a dial thickness gage. One ear was taken as n=1, and the increase in the thickness of the ear was used as an index for detecting the contact dermatitis. Contact Dermatitis=(thickness of the ear after challenge)-(thickness of the ear before challenge) [formula]
wherein E means the contact dermatitis of the group to which the compound was administered, and F means the contact dermatitis of the group to which the vehicle was administered.

Compound	% Suppression [1]	Ratio of IC50 Values [2]	Kb [2]	% Suppression [3]	other results
CSc1cccc2c3c([nH]c12)[C@@H]1Oc2c(O)ccc4c2[C@@]12CCN(CC1CC1)[C@H](C4)[C@]2(O)C3 [Compound 121, 17-cyclopropylmethyl-6,7-didehydro-4,5α-epoxy-3,14β-dihydroxy-7'-methylthio-6,7-2',3'-indolomorphinan]	20%	33.6	3.07 nM		
O=[N+]([O-])c1cccc2c3c([nH]c12)[C@@H]1Oc2c(O)ccc4c2[C@@]12CCN(CC1CC1)[C@H](C4)[C@]2(O)C3 [Compound 136, 17-cyclopropylmethyl-6,7-didehydro-4,5α-epoxy-3,14β-dihydroxy-7'-nitro-6,7-2',3'-indolomorphinan]	18%	192	0.52 nM		
CSc1ccc2c3c([nH]c2c1)[C@@H]1Oc2c(O)ccc4c2[C@@]12CCN(CC1CC1)[C@H](C4)[C@]2(O)C3 [Compound 43, 17-cyclopropylmethyl-6,7-didehydro-4,5α-epoxy-3,14β-dihydroxy-6'-methylthio-6,7-2',3'-indolomorphinan]	26%	168	0.6 nM	27%	
Oc1ccc2c3c1O[C@H]1c4[nH]c5c(-c6ccccc6)cccc5c4C[C@@]4(O)[C@@H](C2)N(CC2CC2)CC[C@]314 [Compound 120, 17-cyclopropylmethyl-6,7-didehydro-4,5α-epoxy-3,14β-dihydroxy-7'-phenyl-6,7-2',3'-indolomorphinan]		17.0	6.25 nM	46%	
N#Cc1ccc2c3c([nH]c2c1)[C@@H]1Oc2c(O)ccc4c2[C@@]12CCN(CC1CC1)[C@H](C4)[C@]2(O)C3 [Compound 53, 17-cyclopropylmethyl-6,7-didehydro-4,5α-epoxy-3,14β-dihydroxy-6'-cyano-6,7-2',3'-indolomorphinan]	18%	62.3	1.63 nM		
Oc1ccc2c3c1O[C@H]1c4[nH]c5c(c4C[C@@]4(O)[C@@H](C2)N(CC2CC2)CC[C@]314)C[C@@]1(O)[C@H]2Cc3ccc(O)c4c3[C@@]1(CCN2CC1CC1)[C@H]5O4 [nor-BNI, reference compound]					Ratio of Absorbances [4]: 7.60; brain cell-protecting action (in words) [5]: has brain cell-protecting action
CCOC(=O)c1cccc2c3c([nH]c12)[C@@H]1Oc2c(O)ccc4c2[C@@]12CCN(CC1CC1)[C@H](C4)[C@]2(O)C3 [Compound 119, 17-cyclopropylmethyl-6,7-didehydro-4,5α-epoxy-3,14β-dihydroxy-7'-ethoxycarbonyl-6,7-2',3'indolomorphinan]	12%	635	0.16 nM	31%	δ-antagonist activity relative to NTI (times that of NTI) [2]: 1.3-1.6 times
Oc1ccc2c3c1O[C@H]1c4[nH]c5c6c(ccc5c4C[C@@]4(O)[C@@H](C2)N(CC2CC2)CC[C@]314)CCCC6 [Compound 2, 17-cyclopropylmethyl-3,14β-dihydroxy-4,5α-epoxy-6,7-didehydromorphinano[6,7-b]cyclohexeno[g]indole]		22.1	4.74 nM	60%	% Suppression ([6]; 5×10^-8 mol/mouse into cerebral ventricles, BALB/c): 83%; suppressive effect relative to NTI (in words) ([6]; into cerebral ventricles, vs NTI): far stronger than NTI; % Suppression ([7]; Adrenectomy): 60%; % Suppression ([7]; Sham Operation): 60%; suppression of contact dermatitis [8]: 44%
O=[N+]([O-])c1cccc2[nH]c3c(c12)C[C@@]1(O)[C@H]2Cc4ccc(O)c5c4[C@@]1(CCN2CC1CC1)[C@H]3O5 [Compound 78, 17-cyclopropylmethyl-6,7-didehydro-4,5α-epoxy-3,14β-dihydroxy-4'-nitro-6,7-2',3'-indolomorphinan]	36%	148	7.25 nM		
